The record followed here is paper PMC10460844, “Real‐Time Monitoring of Multitarget Antimicrobial Mechanisms of Peptoids Using Label‐Free Imaging with Optical Diffraction Tomography” (Advanced Science, 2023).

As a reminder, the HC50 is the concentration giving 50% haemolysis. A low value points to stronger haemolysis.

Converted amounts (≈) assume the structure as drawn. Where two headings read alike, the source gives them in different places. Square brackets hold non-standard residues; d marks the D form. Peptide text beside a SMILES is read from it. Gly(N(CH2)2(3-indolyl)) = O=C(O)CNCCc1c[nH]c2ccccc12; Nspe = C[C@H](NCC(=O)O)c1ccccc1; Nlys = NCCCCNCC(=O)O Where only a bound is given, the exact number is not on record here.

For one data set, the system named is rat erythrocytes. In words: Hemolysis assay. It is filed as cell-based. The method, boiled down: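 Washed Sprague-Dawley rat erythrocytes (10% suspension in PBS pH 7.4) mixed with peptoids (0–100 µM), 60 min at 37 °C; supernatant A540 expressed as % of 1% Triton X-100 lysis. HC10/HC50 are concentrations giving 10%/50% hemolysis; Hmax is hemolysis at 100 µM.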

The next data set deals with E. faecalis KCTC 3511. It is filed as cell-based.
The subject of a further data set is S. typhimurium SL 1344. It is filed as cell-based.
The test system of another data set is P. aeruginosa MDR-198. It is filed as cell-based.
A further data set relates to E. coli ESBL 63103. It is filed as cell-based.
Data set [1] can be described thus: SAXS of peptoid self-assembly in aqueous environment. It is filed as physicochemical. Conditions: for self-assembly state in aqueous solution: aqueous environment. The protocol:
Prior to the experiment, peptoids were dissolved in Tris buffer (50 mM, pH 7.4). This peptoid stock solution (5 mg mL^−1) was diluted as needed. Unilamellar lipid vesicles were prepared using synthetic DMPC, DMPG, and DMPE‐PEG at a 75:22.5:2.5 molar ratio. The lipids were first dissolved in a 1:3 (v/v) methanol:chloroform solution. To make a lipid film, the organic solvents were removed completely under vacuum using a rotary evaporator with a Vacuubrand vacuum pump. The resulting lipid film was hydrated at 35 °C using Tris buffer (50 mM, pH 7.4). After hydration, the dispersion was sonicated for 15 min to promote the formation of smaller unilamellar vesicles. This was followed by the extrusion of lipid vesicles through a 100 nm pore diameter polycarbonate filter (>21 times) using an Avanti mini‐extruder fitted with two 1 mL airtight syringes. Immediately before the SAXS data collection, a peptoid solution with the adequate concentration for the target lipid:peptoid ratio was mixed 1:1 with the lipid solution (5 mg mL^−1) using a micropipette. SAXS experiments were performed at the automated BM29 bioSAXS beamline at the European Synchrotron Radiation Facility (ESRF) in Grenoble, France.^[ [47] ^] […] All experiments were conducted at 37 °C. The data set was calibrated to an absolute intensity scale using water as a primary standard. Samples (45 µL) were run through a capillary using the flow mode of the automated sample changer.^[ [48] ^] SAXS data was collected in ten successive frames of 0.5 s each to monitor radiation damage, and the data reduction was carried out using BioXTAS RAW program.^[ [49] ^]
All scattering models were implemented and fitted to the experimental SAXS data using the QtiSAS software.^[ [50] ^]

The test system of the next data set is E. coli ATCC 25922. The experiment in a line: Thioflavin S fluorescence imaging of intracellular aggregation. It is filed as cell-based. The conditions noted are these: 29 and peptoid 1 at 4 × MIC, control peptides 2 × MIC.
Data set [2] has as its system MRC-5 human lung fibroblast cells. It is filed as cell-based. Here is the method: 4. Cell culture and cytotoxicity test using MTS assay
(Seoul, South Korea), human keratinocytes (HaCaT) were provided by the Skin Research Institute R&D Center of Amore Pacific Company (Yongin, South Korea). All cells were grown in Dulbecco's modified Eagle’s medium (DMEM) supplemented with 10% fetal bovine serum at 37 °C in an atmosphere containing 5% CO2. The 3-(4,5-dimethylthiazol-2- […]
assays were used to determine the effects of peptoids on cell growth.[4] Aliquots (100 µL) of media containing 1.3×10^4 MRC-5 cells/mL or 3×10^4 HaCaT cells/mL were distributed into each well of a 96-well plate (Eppendorf, Hamburg, Germany). The cells were allowed to attach and were grown in a humidified atmosphere containing 5% CO2 at 37 °C for 24 h.
When the cell density reached approximately 70% confluency, the medium was replaced with serial dilutions of the peptoid stock in DMEM and incubated for an additional 24 h. At this point, 20 µL of the CellTiter 96 aqueous non-radioactive cell proliferation assay reagent (Promega, Madison, WI, USA), which contains the tetrazolium compound, was added to each well. Plates were incubated for 4 h at 37 °C to allow time for metabolism. The MTS-formazan products in viable cells were measured at 490 nm using a microplate reader, and the percentage of cell viability (%) was calculated by comparing readings to the values of untreated wells. Percentage values of cell viability were calculated as A/(A control)×100, where A is the absorbance of the test well and A control is the average absorbance of wells containing untreated cells. […]

[3] abbreviates: SAXS, cylindrical α-helical bundle model, 5 mg mL^−1.

As for `C[C@@H](c1ccccc1)N(CC(=O)N(CCCCN)CC(=O)N(CCc1c[nH]c2ccccc12)CC(=O)N(CCc1c[nH]c2ccccc12)CC(N)=O)C(=O)CN(CCCCN)C(=O)CN(CCCCN)C(=O)CN(C(=O)CN(C(=O)CN(CCCCN)C(=O)CN(C(=O)CN(C(=O)CNCCCCN)[C@@H](C)c1ccccc1)[C@@H](C)c1ccccc1)[C@@H](C)c1ccccc1)[C@@H](C)c1ccccc1` [peptoid 29] (H-[Nlys][Nspe][Nspe][Nlys][Nspe][Nspe][Nlys][Nlys][Nspe][Nlys][Gly(N(CH2)2(3-indolyl))][Gly(N(CH2)2(3-indolyl))]-NH2), in the data set on rat erythrocytes, the “H max (100 µM)” value worked out at 9.8 ± 1.8% and the HC50 is on record as > 100 µM. Besides, in the data set on rat erythrocytes (pH 7.4), the HC10 is on record as > 100 µM and the HC50 was > 100 µM. The HC10 in the data set on rat erythrocytes (red cells of rat) was 88.6 µM. In the data set on E. faecalis KCTC 3511 (KCTC 3511), the “MIC E. faecalis KCTC 3511” value is recorded as 3.1 µM (≈ 5.78 µg/mL). Further, in the data set on S. typhimurium SL 1344 (SL 1344), the “MIC S. typhimurium SL 1344” value was 6.3 µM (≈ 11.7 µg/mL). In addition, the “MIC P. aeruginosa MDR-198” value against P. aeruginosa MDR-198 lay within 6.3 to 12.5 µM. Moreover, the “MIC E. coli ESBL 63103” value with E. coli ESBL 63103 is on record as ≥25 µM. Also, in data set [1] (SAXS fit, depending on concentration), the “fraction of big clusters” value is 0.003–0.008. For the same compound, the radius of gyration in data set [1] (SAXS, Tris buffer 50 mM pH 7.4, 37 °C, random Gaussian chain model) amounted to 10 Å. Further, the “self-assembly state in aqueous solution” value in data set [1] (SAXS, 5 mg mL^−1) is “remained monomeric and unstructured”. For the same compound, in the data set with E. coli ATCC 25922, the “Th S fluorescence (intracellular biomass aggregation)” value was “significantly increased emission”.
With `C[C@@H](c1ccccc1)N(CC(=O)N(CCCCN)CC(=O)N(CC(=O)N(CC(=O)N(CCCCN)CC(=O)N(CC(=O)N(CC(=O)N(CCCCN)CC(=O)N(CCc1c[nH]c2ccccc12)CC(=O)N(CCc1c[nH]c2ccccc12)CC(N)=O)[C@@H](C)c1ccccc1)[C@@H](C)c1ccccc1)[C@@H](C)c1ccccc1)[C@@H](C)c1ccccc1)C(=O)CN(C(=O)CNCCCCN)[C@@H](C)c1ccccc1` [peptoid 11] (H-[Nlys][Nspe][Nspe][Nlys][Nspe][Nspe][Nlys][Nspe][Nspe][Nlys][Gly(N(CH2)2(3-indolyl))][Gly(N(CH2)2(3-indolyl))]-NH2), in the data set with rat erythrocytes, the “H max (100 µM)” value turned out to be 103.4 ± 3.2% and the “Hmax (100 µM)” value was 111.9±2.7%. For the same compound, in the data set on rat erythrocytes (pH 7.4), the HC10 amounted to 8.3 µM and the HC50 was determined as 22.2 µM. In the data set with rat erythrocytes (red cells of rat), the HC10 amounted to 6.9 µM and the HC50 was determined as 27.5 µM. Further, the “LC50 MRC-5” value in data set [2] is given as 6.9 µM. In the data set with E. faecalis KCTC 3511 (KCTC 3511), the “MIC E. faecalis KCTC 3511” value is reported as <0.8 µM. In the data set on S. typhimurium SL 1344 (SL 1344), the “MIC S. typhimurium SL 1344” value was determined as 25 µM (≈ 47.4 µg/mL). For the same compound, the “MIC P. aeruginosa MDR-198” value against P. aeruginosa MDR-198 was in the range of 6.3 to 12.5 µM. Moreover, the “MIC E. coli ESBL 63103” value in the data set on E. coli ESBL 63103 fell in the range of 3.1 to 6.3 µM. Also, the “self-assembly state in aqueous solution” value in data set [1] (SAXS, 5 mg mL^−1) was “larger defined nanostructures”. Moreover, in data set [1] (setting [3]), the fraction of dimers is 10%, the fraction of monomers was found to be 30% and the fraction of trimers stood at 60%.
Consider `C[C@@H](c1ccccc1)N(CC(N)=O)C(=O)CN(C(=O)CN(CCCCN)C(=O)CN(C(=O)CN(C(=O)CN(CCCCN)C(=O)CN(C(=O)CN(C(=O)CN(CCCCN)C(=O)CN(C(=O)CN(C(=O)CNCCCCN)[C@@H](C)c1ccccc1)[C@@H](C)c1ccccc1)[C@@H](C)c1ccccc1)[C@@H](C)c1ccccc1)[C@@H](C)c1ccccc1)[C@@H](C)c1ccccc1)[C@@H](C)c1ccccc1` [peptoid 1, reference compound] (H-[Nlys][Nspe][Nspe][Nlys][Nspe][Nspe][Nlys][Nspe][Nspe][Nlys][Nspe][Nspe]-NH2), for which the HC10 is listed as 8.3 µM with rat erythrocytes (Table S2, 10% hemolysis in rat erythrocytes, PBS pH 7.4, 37 °C 60 min, mean of triplicate) and 15.9 µM in the data set with rat erythrocytes (Table S3, counter-ion exchange series, 10% hemolysis in rat erythrocytes, mean of triplicate). For the same compound, the HC50 in the data set on rat erythrocytes (Table S2, 50% hemolysis in rat erythrocytes, PBS pH 7.4, 37 °C 60 min, mean of triplicate) is recorded as 22.9 µM; in the data set with rat erythrocytes (Table S3, counter-ion exchange series, 50% hemolysis in rat erythrocytes, mean of triplicate) it was 49.0 µM. In the data set on rat erythrocytes (Table S3, counter-ion exchange series, hemolysis at 100 µM), the “Hmax (100 µM)” value is on record as 72.1±2.1%. Besides, the “H max (100 µM)” value in the data set with rat erythrocytes (percentage of hemolysis at the highest concentration tested (100 µM), rat erythrocytes) was determined as 112.3 ± 0.7%. In data set [2] (MTS assay, 24 h exposure in DMEM, concentration killing 50% of cells), the “LC50 MRC-5” value is reported as 8.1 µM. The “MIC E. faecalis KCTC 3511” value in the data set on E. faecalis KCTC 3511 (gram-positive pathogenic strain, mean of triplicates) was 0.8 µM (≈ 1.46 µg/mL). Besides, the “MIC S. typhimurium SL 1344” value with S. typhimurium SL 1344 (gram-negative pathogenic strain, mean of triplicates) was determined as 25 µM (≈ 45.5 µg/mL). Moreover, the “Th S fluorescence (intracellular biomass aggregation)” value in the data set with E. coli ATCC 25922 is “enhanced Th S fluorescence”.
